Test systems include SNB-19; SNB-75; HOP-92; SK-OV-3; M19-MEL; SK-MEL-5; MOLT-4; OVCAR-4; RPMI-8226; OVCAR-5; HCT-15; HL-60; TK-10; DLD-1; LOX IMVI; PC-3; DU-145; Hs-578T; SR.
Assay in all cases: NCI tumour cell line growth inhibition, 48 h

Experimental findings from ChEMBL document CHEMBL1201862, “PubChem BioAssay data set” (2004) are described below.

Each structure is given as a SMILES string.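 Dose response: 5 concentrations. Exposure: 48 h. Format: 96-well plates. Endpoint: linear interpolation; highest concentration if not reached. GI50 marks 50% less growth.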 Active and inactive are the calls of the source. No stated cut-off is given here; in the data, active = GI50 up to about 1.1 µM and inactive = higher.

As for `CC1(C)C2C/C(=C\c3ccccc3)C(=O)C1C2` (stereo not given), the GI50 in the assay with SNB-19 was > 100 µM (inactive); in the assay on SNB-75, 25.1 µM (inactive); in the assay on HOP-92 it was > 100 µM (inactive); in the assay on SK-OV-3, > 100 µM (inactive); in the assay on M19-MEL, > 100 µM (inactive); in the assay with SK-MEL-5, 45.5 µM (inactive). Besides, the GI50 was 56.9 µM (inactive) in the assay on MOLT-4; > 100 µM (inactive) with OVCAR-4; 61.8 µM (inactive) with RPMI-8226; > 100 µM (inactive) with OVCAR-5; over 100 µM in the assay with HCT-15; 35.9 µM (inactive) in the assay with HL-60. In addition, the GI50 in the assay with TK-10 is > 100 µM (inactive); with DLD-1, 83.4 µM (inactive); in the assay on LOX IMVI, > 100 µM (inactive).

With `CC1=C(C(=O)CC(=O)C(=O)Nc2ccccc2C(F)(F)F)Sc2ccccc2N1`, the GI50 is 35.1 µM (inactive) with SNB-19; 4.23 µM (inactive) with SNB-75; 20.8 µM (inactive) in the assay on HOP-92; > 100 µM (inactive) with SK-OV-3; 37.3 µM (inactive) in the assay on SK-MEL-5; 29.3 µM (inactive) with OVCAR-4. Besides, the GI50 was 60 µM (inactive) in the assay on RPMI-8226; > 100 µM (inactive) in the assay with OVCAR-5; 48.4 µM with HCT-15; 35.4 µM (inactive) in the assay on HL-60; > 100 µM (inactive) in the assay with TK-10; 76 µM (inactive) in the assay with DLD-1. The GI50 in the assay with LOX IMVI is 59.3 µM (inactive).

`CC(=O)NC(CCCNCc1ccccc1)C(=O)NCc1ccccc1` (stereo not given): the GI50 with SNB-19 was > 100 µM (inactive); in the assay with SNB-75, 87.3 µM (inactive); in the assay on HOP-92 it was > 100 µM (inactive); in the assay with SK-OV-3, > 100 µM (inactive); with M19-MEL, > 100 µM (inactive); with SK-MEL-5 it was > 100 µM (inactive). Moreover, the GI50 with MOLT-4 is > 100 µM (inactive); in the assay with OVCAR-4, > 100 µM (inactive); in the assay with RPMI-8226, > 100 µM (inactive); in the assay on OVCAR-5, > 100 µM (inactive); with HCT-15, over 100 µM; with TK-10, > 100 µM (inactive). Besides, the GI50 in the assay on DLD-1 and with LOX IMVI was > 100 µM (inactive) each time.

In the case of `O=c1c2cc(Br)cc(Br)c2nc(CCCl)n1CCO`, the GI50 is 22.6 µM (inactive) in the assay with SNB-75; 28.8 µM (inactive) with HOP-92; 58.7 µM (inactive) with SK-OV-3; 94.8 µM (inactive) in the assay with M19-MEL; 53.2 µM (inactive) with SK-MEL-5; 46.9 µM (inactive) in the assay on MOLT-4. The GI50 with OVCAR-4 was 52.8 µM (inactive); in the assay with RPMI-8226, 34.8 µM (inactive); in the assay on OVCAR-5 it was > 100 µM (inactive); in the assay on HL-60 it was 37.8 µM (inactive); in the assay with TK-10, > 100 µM (inactive); in the assay on DLD-1, > 100 µM (inactive). Besides, the GI50 in the assay with LOX IMVI was > 100 µM (inactive).

Consider `O=[N+]([O-])C1=Cc2c(O)ccc(O)c2C2c3ccccc3NC12` (stereo not given), for which the GI50 with SNB-19 was 12.2 µM (inactive); in the assay on SNB-75, 22.4 µM (inactive); in the assay on HOP-92, 7.28 µM (inactive); with SK-OV-3, 29 µM (inactive); with PC-3 it was 6.3 µM (inactive); in the assay with SK-MEL-5 it was 12.8 µM (inactive). Also, the GI50 with MOLT-4 is 3.18 µM (inactive); in the assay with OVCAR-4, 16 µM (inactive); in the assay with DU-145, 24.7 µM (inactive); in the assay on RPMI-8226, 10.4 µM (inactive); with OVCAR-5 it was 16.1 µM (inactive); in the assay with HCT-15, 13 µM. In addition, the GI50 is 5.85 µM (inactive) in the assay with HL-60; 16.1 µM (inactive) in the assay with TK-10; 26.1 µM (inactive) in the assay on Hs-578T; 13.5 µM (inactive) in the assay on SR; 14 µM (inactive) in the assay with LOX IMVI.

For `COC(=O)c1cc(C)n2c1CS[C@@H]2c1ccccc1`, the GI50 is 66.1 µM (inactive) in the assay with SNB-19; 16.5 µM (inactive) in the assay with SNB-75; 22.4 µM (inactive) with HOP-92; 46 µM (inactive) in the assay with SK-OV-3; 40.5 µM (inactive) with PC-3; 19.8 µM (inactive) with SK-MEL-5. The GI50 in the assay on MOLT-4 was 22.5 µM (inactive); in the assay on OVCAR-4, 36.8 µM (inactive); in the assay on DU-145 it was 82 µM (inactive); in the assay on RPMI-8226, 28.2 µM (inactive); with OVCAR-5, > 100 µM (inactive); with HCT-15, 27.5 µM. The GI50 in the assay with HL-60 was 26.2 µM (inactive); with TK-10 it was 66.4 µM (inactive); in the assay with Hs-578T it was 45.1 µM (inactive); with SR, 17.3 µM (inactive); in the assay with LOX IMVI, 40.1 µM (inactive).

On to `CCOC(=O)N1CCN(Cc2cc(=O)n3ccc(C)cc3n2)CC1`, for which the GI50 in the assay with SNB-19, with SNB-75, in the assay with HOP-92, with SK-OV-3, with PC-3 and in the assay with SK-MEL-5 was > 100 µM (inactive) throughout. Besides, the GI50 was > 100 µM (inactive) in the assay on MOLT-4; > 100 µM (inactive) with OVCAR-4; > 100 µM (inactive) with DU-145; > 100 µM (inactive) in the assay with RPMI-8226; > 100 µM (inactive) with OVCAR-5; over 100 µM with HCT-15. The GI50 in the assay with HL-60, in the assay on TK-10, in the assay on Hs-578T, in the assay on SR and in the assay on LOX IMVI was > 100 µM (inactive) in each case.

As to `CCOC(=O)C1Cc2[nH]c3ccccc3c2C(C)C1C` (stereo not given), the GI50 in the assay on SNB-19 was 17.7 µM (inactive); in the assay on SNB-75 it was 8.09 µM (inactive); in the assay with HOP-92 it was 15.7 µM (inactive); in the assay with SK-OV-3, 18.9 µM (inactive); in the assay on SK-MEL-5, 14 µM (inactive); with MOLT-4 it was 10.8 µM (inactive). The GI50 in the assay with OVCAR-4 was 16 µM (inactive); with OVCAR-5, 17 µM (inactive); with HCT-15 it was 16.7 µM; with TK-10 it was 30 µM (inactive); in the assay with DLD-1, 15.8 µM (inactive); in the assay on SR, 16.6 µM (inactive). Also, the GI50 with LOX IMVI is 14.8 µM (inactive).

`CCOC(=O)CSc1nc(N)c2c(-c3ccccc3)c3c(nc2n1)CCCC3`: the GI50 was > 100 µM (inactive) in the assay with SNB-19; 98.6 µM (inactive) in the assay on SNB-75; > 100 µM (inactive) with HOP-92; > 100 µM (inactive) in the assay with SK-OV-3; > 100 µM (inactive) with PC-3; > 100 µM (inactive) in the assay on SK-MEL-5. Besides, the GI50 in the assay on MOLT-4 was > 100 µM (inactive); with OVCAR-4 it was > 100 µM (inactive); in the assay on DU-145, > 100 µM (inactive); in the assay with RPMI-8226, > 100 µM (inactive); with OVCAR-5 it was > 100 µM (inactive); with HCT-15 it was over 100 µM. The GI50 was > 100 µM (inactive) in the assay with HL-60; > 100 µM (inactive) with TK-10; 65.8 µM (inactive) with Hs-578T; > 100 µM (inactive) in the assay with SR; > 100 µM (inactive) with LOX IMVI.

`O=C1C[C@@H]2[C@@H](c3ccccc3)[C@@H]3C(=O)c4ccccc4NC(=O)[C@H]3[C@]2(O)c2ccccc2N1`: the GI50 with SNB-19, with SNB-75, in the assay with M19-MEL, in the assay with SK-MEL-5, with MOLT-4 and in the assay on OVCAR-4 was > 100 µM (inactive) throughout. The GI50 with RPMI-8226 is > 100 µM (inactive); with OVCAR-5 it was > 100 µM (inactive); in the assay with HCT-15, over 100 µM; in the assay with HL-60, > 100 µM (inactive); in the assay on TK-10, > 100 µM (inactive); in the assay on SR it was > 100 µM (inactive). In the assay on LOX IMVI, the GI50 was > 100 µM (inactive).

Take `C/C(Cl)=N/OC(=O)Nc1ccc(S(N)(=O)=O)c(C)c1`: the GI50 with SNB-19 is 18.1 µM (inactive); in the assay with SNB-75 it was 19 µM (inactive); in the assay with HOP-92, 2 µM (inactive); in the assay with SK-OV-3 it was > 43.5 µM (inactive); in the assay with PC-3, 18.3 µM (inactive); in the assay on SK-MEL-5, 12.9 µM (inactive). For the same molecule, the GI50 in the assay with MOLT-4 was 1.5 µM (inactive); in the assay with OVCAR-4, 15.5 µM (inactive); in the assay with DU-145, 16.6 µM (inactive); with RPMI-8226, 1.95 µM (inactive); in the assay on OVCAR-5 it was 18.3 µM (inactive); in the assay on HCT-15 it was 2.02 µM. The GI50 with HL-60 is 1.42 µM (inactive); in the assay with TK-10, 5.58 µM (inactive); with Hs-578T, 43.4 µM (inactive); with SR, 1.86 µM (inactive); with LOX IMVI it was 2.27 µM (inactive).

With `Cc1ccc(/C=C2\CCCC(CN3CCCCC3)C2=O)cc1` (stereo not given), the GI50 in the assay on SNB-19 was 15.2 µM (inactive); in the assay on SNB-75 it was 4.66 µM (inactive); with HOP-92, 1.81 µM (inactive); with SK-OV-3 it was 16.5 µM (inactive); in the assay on PC-3, 2.79 µM (inactive); with SK-MEL-5 it was 4.66 µM (inactive). In addition, the GI50 in the assay with MOLT-4 was 4 µM (inactive); with OVCAR-4, 1.79 µM (inactive); in the assay on DU-145, 11.7 µM (inactive); in the assay on RPMI-8226 it was > 100 µM (inactive); in the assay on OVCAR-5, 15 µM (inactive); in the assay with HCT-15, 2.14 µM. In addition, the GI50 in the assay with HL-60 is 0.555 µM (active); with TK-10, 3.22 µM (inactive); in the assay with Hs-578T, 2.13 µM (inactive); in the assay on SR, 0.767 µM (active); in the assay with LOX IMVI it was 1.84 µM (inactive).

For the molecule `COc1nc(N)nc2c1ncn2C1CC(O)C(CO)O1` (stereo not given), the GI50 in the assay on SNB-19, in the assay with SNB-75, in the assay on HOP-92, with SK-OV-3, in the assay with PC-3 and in the assay on SK-MEL-5 was > 100 µM (inactive) each time. For the same molecule, the GI50 in the assay with MOLT-4 was > 100 µM (inactive); in the assay with OVCAR-4, > 100 µM (inactive); with DU-145 it was > 100 µM (inactive); in the assay on RPMI-8226 it was > 100 µM (inactive); with OVCAR-5, > 100 µM (inactive); in the assay on HCT-15, over 100 µM. The GI50 in the assay with HL-60, with TK-10, with Hs-578T, in the assay on SR and in the assay on LOX IMVI was > 100 µM (inactive) in each case.
